# According to ChEMBL document CHEMBL1158374, “Exploring QSAR and QAAR for inhibitors of cytochrome P450 2A6 and 2A5 enzymes using GFA and G/PLS techniques” (Eur J Med Chem, 2009):
# What was measured:
# [1] = target: T1, Cytochrome P450 2A5 (Mus musculus, UniProt P20852); assay: Inhibition of mouse CYP2A5
# T1 sequence (P20852 whole entry): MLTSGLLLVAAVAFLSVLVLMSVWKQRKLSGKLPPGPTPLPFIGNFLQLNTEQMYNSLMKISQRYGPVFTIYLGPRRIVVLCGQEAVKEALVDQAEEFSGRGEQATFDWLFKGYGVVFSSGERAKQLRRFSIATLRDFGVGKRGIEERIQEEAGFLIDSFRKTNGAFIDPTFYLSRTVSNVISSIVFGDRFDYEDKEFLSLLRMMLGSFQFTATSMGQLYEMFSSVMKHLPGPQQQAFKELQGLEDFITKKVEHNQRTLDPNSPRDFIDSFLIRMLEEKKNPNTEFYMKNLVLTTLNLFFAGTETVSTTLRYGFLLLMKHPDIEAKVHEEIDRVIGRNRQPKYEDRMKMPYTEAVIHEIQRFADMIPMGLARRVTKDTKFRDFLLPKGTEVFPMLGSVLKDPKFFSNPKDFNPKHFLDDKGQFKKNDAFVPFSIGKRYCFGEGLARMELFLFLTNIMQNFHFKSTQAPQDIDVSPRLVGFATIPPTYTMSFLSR
# [2] = target: T2, Cytochrome P450 2A6 (Homo sapiens, UniProt P11509); assay: Inhibition of human CYP2A6
# T2 sequence (P11509 whole entry): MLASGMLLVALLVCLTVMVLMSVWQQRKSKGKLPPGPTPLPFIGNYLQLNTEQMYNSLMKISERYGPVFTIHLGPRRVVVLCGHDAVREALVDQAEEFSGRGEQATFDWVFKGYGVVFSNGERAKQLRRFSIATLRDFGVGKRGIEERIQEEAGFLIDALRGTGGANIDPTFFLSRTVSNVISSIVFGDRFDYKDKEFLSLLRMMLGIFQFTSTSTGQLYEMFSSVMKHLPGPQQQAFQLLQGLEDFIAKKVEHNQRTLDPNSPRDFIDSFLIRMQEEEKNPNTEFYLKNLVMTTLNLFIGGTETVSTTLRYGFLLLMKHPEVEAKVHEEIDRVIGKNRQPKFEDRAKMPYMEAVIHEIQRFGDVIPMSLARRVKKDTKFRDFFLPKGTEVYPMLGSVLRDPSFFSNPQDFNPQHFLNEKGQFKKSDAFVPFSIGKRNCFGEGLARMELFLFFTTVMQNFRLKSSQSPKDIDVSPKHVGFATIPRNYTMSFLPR
Compound,IC50 [1],IC50 [2]
Clc1ccc(-c2ccccc2)cc1,13 µM,–
CN1C(=O)CCC1c1cccnc1 (centres undefined),1500 µM,–
CN1CCC[C@H]1c1cccnc1 [NICOTINE],160 µM,579 µM
